Data published in ChEMBL document CHEMBL1201862, “PubChem BioAssay data set” (2004).
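The compound was tested at five concentrations on cells cultured in 96-well plates, with a 48-hour exposure period. GI50 is the concentration that inhibits growth by half.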 Active and inactive are the calls of the source. No stated cut-off is given here; in the data, active = GI50 up to about 1.1 µM and inactive = higher.

What was measured:
Assay in all cases: inhibition of tumour cell growth, NCI panel, 48 h
OVCAR-3 = tested on: OVCAR-3
LOX IMVI = tested on: LOX IMVI
SF-295 = tested on: SF-295
SN12C = tested on: SN12C
CAKI-1 = tested on: CAKI-1
SW-620 = tested on: SW-620
UACC-257 = tested on: UACC-257
HCC 2998 = tested on: HCC 2998
SF-539 = tested on: SF-539
SNB-75 = tested on: SNB-75
OVCAR-4 = tested on: OVCAR-4
NCI-H226 = tested on: NCI-H226
SK-MEL-5 = tested on: SK-MEL-5
U-251 = tested on: U-251
KM-20L2 = tested on: KM-20L2
EKVX = tested on: EKVX

Measured: GI50

CC(C)(C)OC(=O)N1N=NC2C1C1CC(OCc3ccccc3)(OCc3ccccc3)C2O1 (centres undefined)
inactive: OVCAR-3 30.3 µM | LOX IMVI 18.1 µM | SF-295 40 µM | SN12C 49.4 µM | CAKI-1 > 100 µM | SW-620 14.7 µM | UACC-257 23.6 µM | HCC 2998 > 100 µM | SF-539 > 10 µM | SNB-75 28.1 µM | OVCAR-4 32.5 µM | NCI-H226 21.4 µM | SK-MEL-5 16.8 µM | U-251 55.1 µM | KM-20L2 > 100 µM

O=C(Nc1cccc(NC(=O)c2cc(=O)c3ccccc3o2)n1)c1cc(=O)c2ccccc2o1
inactive: OVCAR-3 37.6 µM | LOX IMVI 6.1 µM | CAKI-1 > 100 µM | SW-620 > 100 µM | UACC-257 56.5 µM | EKVX 57.4 µM | HCC 2998 60.1 µM | SF-539 20.3 µM | SNB-75 38.8 µM | OVCAR-4 44.6 µM | SK-MEL-5 64.9 µM | U-251 66.8 µM | KM-20L2 68.4 µM

N#CC(/C(=N/NC(=O)C(=O)NN)C(=O)Nc1nc([N+](=O)[O-])cs1)c1ccc(Cl)cc1 (centres undefined)
inactive: OVCAR-3 > 100 µM | LOX IMVI > 100 µM | SF-295 > 100 µM | SN12C > 100 µM | SW-620 > 100 µM | UACC-257 > 100 µM | EKVX > 100 µM | HCC 2998 > 100 µM | SNB-75 > 100 µM | OVCAR-4 > 100 µM | NCI-H226 > 100 µM | SK-MEL-5 > 100 µM | U-251 > 100 µM | KM-20L2 > 100 µM

Oc1ccc(O)c(-n2cccn2)c1
inactive: LOX IMVI 52.7 µM | SF-295 95.1 µM | SN12C 94.4 µM | CAKI-1 19.1 µM | SW-620 29.3 µM | EKVX > 100 µM | HCC 2998 > 100 µM | SF-539 > 100 µM | SNB-75 > 100 µM | OVCAR-4 > 100 µM | SK-MEL-5 > 100 µM | U-251 > 100 µM | KM-20L2 > 100 µM

COc1ccc(CNc2nc3ccccc3nc2-c2cccs2)cc1OC
inactive: OVCAR-3 51.3 µM | SF-295 42.4 µM | SN12C 61.5 µM | SW-620 93.3 µM | UACC-257 23.3 µM | EKVX 59 µM | HCC 2998 30.8 µM | SF-539 41 µM | NCI-H226 68.5 µM | U-251 75.5 µM | KM-20L2 68.4 µM

O=C(O)c1cc(-c2ccccc2O)nc2ccccc12
inactive: OVCAR-3 > 100 µM | SF-295 > 100 µM | SN12C > 100 µM | CAKI-1 > 100 µM | SW-620 > 100 µM | UACC-257 > 100 µM | EKVX > 100 µM | HCC 2998 > 100 µM | SF-539 > 100 µM | SNB-75 > 100 µM | OVCAR-4 > 100 µM | SK-MEL-5 > 100 µM | U-251 > 100 µM | KM-20L2 > 100 µM

CC1=C2CCCC2=C/C(=N/Nc2ccc([N+](=O)[O-])cc2[N+](=O)[O-])CC1
inactive: OVCAR-3 > 100 µM | LOX IMVI > 100 µM | SF-295 > 100 µM | SN12C > 100 µM | CAKI-1 > 100 µM | SW-620 > 100 µM | UACC-257 > 100 µM | EKVX > 100 µM | SF-539 > 100 µM | SNB-75 45.2 µM | OVCAR-4 > 100 µM | NCI-H226 > 100 µM | SK-MEL-5 > 100 µM | U-251 > 100 µM | KM-20L2 > 100 µM

CCOC(=O)CC1NC(=O)CS1 (centres undefined)
inactive: OVCAR-3 > 100 µM | SF-295 > 100 µM | SN12C 36.6 µM | CAKI-1 > 100 µM | SW-620 15.9 µM | UACC-257 > 100 µM | EKVX > 100 µM | HCC 2998 > 100 µM | SF-539 > 100 µM | SNB-75 > 100 µM | OVCAR-4 > 100 µM | NCI-H226 12.6 µM | SK-MEL-5 > 100 µM | U-251 > 100 µM | KM-20L2 > 100 µM

Cc1nnc2n1N=C(c1ccc(-c3ccc([N+](=O)[O-])cc3)o1)CS2
inactive: OVCAR-3 > 100 µM | LOX IMVI > 100 µM | SF-295 > 100 µM | SN12C > 100 µM | CAKI-1 > 100 µM | SW-620 > 100 µM | UACC-257 > 100 µM | HCC 2998 > 100 µM | SF-539 > 100 µM | SNB-75 > 100 µM | OVCAR-4 > 100 µM | NCI-H226 > 100 µM | U-251 > 100 µM | KM-20L2 > 100 µM

NC(=O)c1cccc(C2OC(COP(=O)(O)O)C(O)C2O)c1 (centres undefined)
inactive: OVCAR-3 > 50 µM | LOX IMVI > 50 µM | SF-295 39.1 µM | SN12C > 50 µM | CAKI-1 > 50 µM | SW-620 42.9 µM | UACC-257 > 50 µM | EKVX > 50 µM | HCC 2998 > 50 µM | SF-539 15.8 µM | SNB-75 14.4 µM | NCI-H226 32.9 µM | SK-MEL-5 > 50 µM | U-251 > 50 µM | KM-20L2 > 50 µM
